This assay concerns the target Recombinant Btk (Homo sapiens (Human), UniProt Q06187). As to the kind of experiment: Btk kinase assay (TR-FRET). (TR-FRET usually uses a lanthanide donor and a delayed reading to cut background.)
Where [1] appears, read: read-out: IC50 (nM) Btk, 1 hour pre-incubation, ATP at Km.

Data on 4 compounds can be found in patent US10005782B2, “Substituted pyrazolo[1,5-a]pyrimidines as bruton's tyrosine kinase modulators” (BeiGene, Ltd., priority 2013, dated 2018).

Like-named read-outs stand apart in the source and are kept apart here.

Chain of Recombinant Btk (Q06187 whole entry): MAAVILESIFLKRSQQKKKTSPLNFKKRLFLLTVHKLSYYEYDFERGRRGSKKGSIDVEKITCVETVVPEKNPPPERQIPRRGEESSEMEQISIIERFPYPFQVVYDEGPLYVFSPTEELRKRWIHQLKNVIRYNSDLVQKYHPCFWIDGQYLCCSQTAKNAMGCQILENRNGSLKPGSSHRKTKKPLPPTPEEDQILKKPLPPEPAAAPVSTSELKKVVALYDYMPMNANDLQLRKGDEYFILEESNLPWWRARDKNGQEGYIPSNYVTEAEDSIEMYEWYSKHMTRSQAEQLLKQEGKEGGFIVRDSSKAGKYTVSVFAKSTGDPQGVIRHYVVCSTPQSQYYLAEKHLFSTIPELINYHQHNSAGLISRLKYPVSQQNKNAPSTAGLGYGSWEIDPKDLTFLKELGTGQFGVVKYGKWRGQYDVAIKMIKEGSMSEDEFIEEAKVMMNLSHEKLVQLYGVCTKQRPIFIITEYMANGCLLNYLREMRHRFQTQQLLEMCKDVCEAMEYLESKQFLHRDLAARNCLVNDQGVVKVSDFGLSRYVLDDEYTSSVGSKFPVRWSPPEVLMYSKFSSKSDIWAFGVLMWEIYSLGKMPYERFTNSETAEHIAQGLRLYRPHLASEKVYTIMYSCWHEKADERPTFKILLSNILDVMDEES

What is called IC50 is the concentration at which inhibition is half-maximal. Take `NC(=O)c1c(-c2ccc(Oc3ccccc3)cc2)nn2c1NCCC2c1cccc(N)c1` (single isomer, unassigned) [Compound 2a, 7-(3-Aminophenyl)-2-(4-phenoxyphenyl)-4,5,6,7-tetrahydropyrazolo[1,5-a]pyrimidine-3-carboxamide]: the half-maximal inhibitory concentration (IC50) (read-out: IC50 (nM) Btk, 1 hour pre-incubation, ATP at Km, listed as 2a (peak 1)) turned out to be 270 nM. As for `NC(=O)c1c(-c2ccc(Oc3ccccc3)cc2)nn2c1NCCC2c1cccc(N)c1` (single isomer, unassigned) [Compound 2b, 7-(3-Aminophenyl)-2-(4-phenoxyphenyl)-4,5,6,7-tetrahydropyrazolo[1,5-a]pyrimidine-3-carboxamide], the concentration for half-maximal inhibition (IC50) (read-out: IC50 (nM) Btk, 1 hour pre-incubation, ATP at Km, listed as 2b (peak 2)) was 210 nM. On to `C=CC(=O)Nc1ccccc1C1CCNc2c(C(N)=O)c(-c3ccc(F)c(F)c3)nn21` (stereo not shown) [Compound 137, 7-(2-acrylamidophenyl)-2-(3,4-difluorophenyl)-4,5,6,7-tetrahydropyrazolo[1,5-a]pyrimidine-3-carboxamide], for which the IC50 under setting [1] was 3.7 nM. On the same count and under the same terms, under `C=CC(=O)Nc1ccccc1C1CCNc2c(C(N)=O)c(-c3ccc(OC)c(OC)c3)nn21` (stereo not shown) [Compound 168, 7-(2-Acrylamidophenyl)-2-(3,4-dimethoxyphenyl)-4,5,6,7-tetrahydropyrazolo[1,5-a]pyrimidine-3-carboxamide] stands 3.7 nM.
